Data on two substances can be found in patent EP1923473B1, “Bis-diglycolamides (BISDGA) as new extractants for lanthanides [Ln(III)] and actinides [An(III)] from aqueous high-level wastes” (Universidad Autónoma de Madrid, priority 2006, dated 2008).

Holding throughout (assay type): physicochemical
Data set [1] in a line: Hydrolytic stability. Conditions: 0.1 mol/L in n-dodecane/1-octanol (95:5)%vol; permanent contact with 3 mol/L nitric acid. As for the experimental part:
(§1) The organic solutions of the compounds to be tested were prepared and equilibrated with 3 mol/L nitric acid, as has been indicated in sections A) and B).
(§2) Then, 700 µL of the equilibrated organic phase were put in vials of an approximate volume of 2 mL and were contacted with 700 µL of 3 mol/L nitric acid. They were stirred vigorously in an oscillating shaker for periods of 7, 15, 24, 36, 42, 50 and 66 days. After each permanent contact period with the nitric acid aqueous phase, the extraction capability of the organic solution was evaluated, taking 600 µL of the corresponding organic phase and contacting it with 600 µL of aqueous phase formed by a 3 mol/L nitric acid solution spiked with 600 Bq of ^152Eu and with 600 Bq of ^241Am. It was stirred vigorously by means of an oscillating shaker for 15 minutes. The separation of the phases was carried out by centrifugation at 5000 rpm. 400 µL of each of the phases were taken for the determination of the concentration of ^152Eu and ^241Am, as in section C).
(§3) After the permanent contact periods with the 3 mol/L nitric acid solution, the extraction capability of the organic solutions of both compounds was evaluated with 3 mol/L nitric acid solutions containing 600 Bq of ^152 Eu and 600 Bq of ^241Am.

Data set [2] in a line: Batch extraction from simulated HLLW from the PUREX process, alpha spectrometry. Conditions: 0.1 mol/L in TPH/1-octanol (90:10). The text has this: The feed solution used for the extraction tests is a simulated solution of an HLLW from the PUREX process, the composition of which is shown in Table 4. Table 4: Composition of the simulated HLLW-PUREX solution used for the extraction tests
The composition of the HLLW corresponds to a burn-up of 33 GWd/tHM, the generated volume of HLLW being 5000 1/t of fuel. The feed was spiked with ^241Am, ^244Cm, ^252Cf and ^152Eu. Oxalic acid and N-(2-hydroxyethyl)ethylenediaminotriacetate (HEDTA) were also added before the extraction tests.
500 µL of the aqueous and organic phases were spiked with 10 µL of a tracer solution containing 241Am, 244Cm, 252Cf and ^152Eu, and were equilibrated for 10 minutes while they were stirred vigorously in a vortex stirrer. After the separation of the phases by centrifugation, 200 µL aliquots of each phase were taken for the determination of the concentration of ^241Am and ^152Eu using a high-purity germanium spectrometer system (EG&G Ortec). The nuclides ^241Am, ^244Cm and ^252Cf were measured by alpha spectrometry with an α-Analyst device of the company Canberra-Packard GmbH, Germany.
The concentrations of the stable elements were determined by mass spectrometry with an inductively coupled plasma source (ICP-MS) in a DRC Elan 6100 device of Perkin Elmer Sciex. The aqueous phase was measured directly after the appropriate dilution. The organic phase was analyzed after having mineralized the organic matter by microwave acid digestion and subsequent dilution.
The distribution coefficients were calculated for each element according to section C).
A 0.1 mol/L solution of compound 4 in the "TPH/1-octanol (90:10)%vol" mixture was prepared. Extraction experiments were carried out with said simulated HLLW in a pure form and also adding oxalic acid and HEDTA to it. These complexing agents have shown to be effective in the DIAMEX process for the complexing of Mo, Zr (H2C2O4) and Pd (HEDTA).
Extraction experiments were carried out with said simulated HLLW in a pure form and also adding oxalic acid and HEDTA to it.

Data set [3] in a line: Re-extraction with diluted nitric acid solutions. Conditions: 0.1 mol/L in TPH/1-octanol (95:5)%vol; for re-extraction steps necessary: 0.016 mol/L of stable Eu(III) present. As to the method: 0.1 mol/L samples of compound 4 in a "TPH/1-octanol (95:5)%vol" mixture were prepared. Extractions of Am(III) and Eu(III) were carried out from 3 mol/L nitric acid solutions containing only the radionuclides ^152Eu and ^241Am and 3 mol/L nitric acid solutions containing the radionuclides ^152Eu and ^241Am and 0.016 mol/L of stable Eu(III), simulating the total concentration of Ln(III) in a HLLW from the PUREX process. Once the extraction process was carried out, a washing step with a 1 mol/L nitric acid solution was carried out. Then, different re-extraction steps were carried out with 0.01 mol/L nitric acid solutions, simulating a continuous process. The evolution of the concentration of Am(III) and Eu(III) in the organic phase in the different extraction, scrubbing and re-extraction steps is shown in Figure 14.
Nevertheless, it is possible to regenerate the organic solutions of compound 18 for subsequent extraction cycles in an industrial continuous process.

Data set [4] can be described thus: Hydrolytic stability, extraction capability after contact with 3 mol/L nitric acid. Conditions: 0.1 mol/L in n-dodecane/1-octanol (95:5)%vol; for extraction capability of Eu (III) (DEu): during the different contact time periods with 3 mol/L nitric acid. As for the experimental part: as §1, §2, §3
The mark [5] stands for this setting: Oxalic acid 0.2 mol/L, HEDTA 0.05 mol/L, TBP 0.5 mol/L.
Setting [6] is: Oxalic acid 0.2 mol/L, HEDTA 0.05 mol/L, TBP No.
The mark [7] stands for this setting: Oxalic acid 0.3 mol/L, HEDTA 0.05 mol/L, TBP 0.5 mol/L.
[8] abbreviates: Oxalic acid 0.3 mol/L, HEDTA 0.05 mol/L, TBP No.
[9] abbreviates: Oxalic acid No, HEDTA No, TBP 0.5 mol/L.
Setting [10] is: Oxalic acid No, HEDTA No, TBP No.

On to “2-Dioctylcarbamoylmethoxy-N-[3-[3-(2-dioctylcarbamoyl-methoxyacetylamino)propoxy]propyl]acetamide [Compound 18]”, for which the stability against hydrolysis entry in data set [1] is listed as “very stable against hydrolysis”. Further, the “Distribution coefficients Am-241, α” value in data set [2] (setting [5]) is reported as 55; in data set [2] (setting [6]) it was 46; in data set [2] (setting [7]), 90; in data set [2] (setting [8]) it was 87; in data set [2] (setting [9]) it was 56; in data set [2] (setting [10]), 96. Also, the re-extraction steps necessary entry in data set [3] (0.01 mol/L nitric acid) was “six re-extraction steps”. Also, in data set [3] (only the radionuclides 152Eu and 241Am present, 0.01 mol/L nitric acid), the “re-extraction steps for complete re-extraction” value is given as “four re-extraction steps”. The substance also displayed a DAm in data set [4] (after 42 days of permanent contact with 3 mol/L nitric acid) of 280. Also, in data set [4], the “extraction capability of Eu (III) (DEu)” value is listed as “remains constant”.
In the case of “2-Dioctylcarbamoylmethoxy-N-[3-[(2-dioctylcarbamoyl-methoxy-acetylamino)methyl]benzyl]acetamide [Compound 4]”, the stability against hydrolysis entry in data set [1] is “very stable against hydrolysis”. Moreover, the “Distribution coefficients Am-241, α” value in data set [2] (setting [5]) was 52; in data set [2] (setting [6]), 158; in data set [2] (setting [7]), 83; in data set [2] (setting [8]), 164; in data set [2] (setting [9]) it was 58; in data set [2] (setting [10]), 112. Moreover, the re-extraction steps necessary entry in data set [3] (0.01 mol/L nitric acid) was “an additional re-extraction step is necessary”. The “Am(III) and Eu(III) recovered from the organic phase” value in data set [3] (tracers only (152Eu and 241Am), after three re-extraction steps with 0.01 mol/L nitric acid) is recorded as “more than 99.9%”. Moreover, the DAm in data set [4] (after 66 days of permanent contact with 3 mol/L nitric acid) was found to be 145. For the same substance, in data set [4], the “extraction capability of Eu (III) (DEu)” value was “remains constant”.
